Experimental data as given in the supplement of paper PMC10307832.

Tests used:
Experiment in all cases: relative viability (nuclei count vs DMSO), 5 days (fraction); higher = more cells survive
Neratinib + Vorinostat = compound: CCOc1cc2ncc(C#N)c(Nc3ccc(OCc4ccccn4)c(Cl)c3)c2cc1NC(=O)/C=C/CN(C)C [Neratinib] + O=C(CCCCCCC(=O)Nc1ccccc1)NO [Vorinostat] (partner 1 µM)
Method in brief: (§1)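 Relative viability was taken as the ratio of nuclei in treated wells to nuclei in vehicle wells. Lung cancer cell lines in 1536-well plates received compounds by pin tool one day after seeding, either one drug alone or a fixed anchor-drug dose plus five library-drug doses (not always all listed) in √10 steps. Nuclei were counted on 4× images after 5 days of treatment, and values are medians of duplicate plates.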

Neratinib + Tozasertib = compound: CCOc1cc2ncc(C#N)c(Nc3ccc(OCc4ccccn4)c(Cl)c3)c2cc1NC(=O)/C=C/CN(C)C [Neratinib] + Cc1cc(Nc2cc(N3CCN(C)CC3)nc(Sc3ccc(NC(=O)C4CC4)cc3)n2)n[nH]1 [Tozasertib] (partner 0.1 µM)
Method in brief: as §1

Neratinib + Pemetrexed = compound: CCOc1cc2ncc(C#N)c(Nc3ccc(OCc4ccccn4)c(Cl)c3)c2cc1NC(=O)/C=C/CN(C)C [Neratinib] + Nc1nc2[nH]cc(CCc3ccc(C(=O)N[C@@H](CCC(=O)O)C(=O)O)cc3)c2c(=O)[nH]1 [Pemetrexed] (partner 0.2 µM)
Method in brief: as §1

Neratinib + AZD7762 = compound: CCOc1cc2ncc(C#N)c(Nc3ccc(OCc4ccccn4)c(Cl)c3)c2cc1NC(=O)/C=C/CN(C)C [Neratinib] + NC(=O)Nc1cc(-c2cccc(F)c2)sc1C(=O)N[C@H]1CCCNC1 [AZD7762] (partner 0.2 µM)
Method in brief: as §1

Neratinib + Trametinib = compound: CCOc1cc2ncc(C#N)c(Nc3ccc(OCc4ccccn4)c(Cl)c3)c2cc1NC(=O)/C=C/CN(C)C [Neratinib] + CC(=O)Nc1cccc(-n2c(=O)n(C3CC3)c(=O)c3c(Nc4ccc(I)cc4F)n(C)c(=O)c(C)c32)c1 [Trametinib] (partner 0.02 µM)
Method in brief: as §1

Neratinib + Decitabine = compound: CCOc1cc2ncc(C#N)c(Nc3ccc(OCc4ccccn4)c(Cl)c3)c2cc1NC(=O)/C=C/CN(C)C [Neratinib] + Nc1ncn([C@H]2C[C@H](O)[C@@H](CO)O2)c(=O)n1 [Decitabine] (partner 2 µM)
Method in brief: as §1

Neratinib + Olaparib = compound: CCOc1cc2ncc(C#N)c(Nc3ccc(OCc4ccccn4)c(Cl)c3)c2cc1NC(=O)/C=C/CN(C)C [Neratinib] + O=C(c1cc(Cc2n[nH]c(=O)c3ccccc23)ccc1F)N1CCN(C(=O)C2CC2)CC1 [Olaparib] (partner 8 µM)
Method in brief: as §1

Neratinib + OSI-027 = compound: CCOc1cc2ncc(C#N)c(Nc3ccc(OCc4ccccn4)c(Cl)c3)c2cc1NC(=O)/C=C/CN(C)C [Neratinib] + COc1cccc2cc(-c3nc([C@H]4CC[C@H](C(=O)O)CC4)n4ncnc(N)c34)[nH]c12 [OSI-027] (partner 0.5 µM)
Method in brief: as §1

Neratinib + Palbociclib = compound: CCOc1cc2ncc(C#N)c(Nc3ccc(OCc4ccccn4)c(Cl)c3)c2cc1NC(=O)/C=C/CN(C)C [Neratinib] + CC(=O)c1c(C)c2cnc(Nc3ccc(N4CCNCC4)cn3)nc2n(C2CCCC2)c1=O [Palbociclib] (partner 0.5 µM)
Method in brief: as §1

Neratinib = compound: CCOc1cc2ncc(C#N)c(Nc3ccc(OCc4ccccn4)c(Cl)c3)c2cc1NC(=O)/C=C/CN(C)C [Neratinib]
Method in brief: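 Five library-drug doses spaced by √10 were pinned onto vehicle-anchored 1536-well plates of lung cancer cell lines that had been kept overnight at 37 °C. Cells went 5 days without medium change, then were fixed, permeabilised and Hoechst-stained together, imaged at 4× and counted by MetaXpress. Viability is the ratio of treated-well to vehicle-well nuclei, taken as a median over plates. Plates required control CV below 25% and at least one doubling.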

NCI-H1648 was tested, and the relative viability (Neratinib + Vorinostat; first compound 0.01 µM) was 0.328, the relative viability (Neratinib + Vorinostat; first compound 0.03162 µM) was 0.427 and the relative viability (Neratinib + Vorinostat; first compound 0.1 µM) was 0.283. The relative viability (Neratinib + Vorinostat; first compound 0.3162 µM) was 0.304, the relative viability (Neratinib + Vorinostat; first compound 1 µM) was 0.368 and the relative viability (Neratinib + Tozasertib; first compound 0.01 µM) was 0.608. It also gave a relative viability (Neratinib + Tozasertib; first compound 0.03162 µM) of 0.364, a relative viability (Neratinib + Tozasertib; first compound 0.1 µM) of 0.54 and a relative viability (Neratinib + Tozasertib; first compound 0.3162 µM) of 0.299. For the same cell line, the relative viability (Neratinib + Tozasertib; first compound 1 µM) was 0.188, the relative viability (Neratinib + Pemetrexed; first compound 0.01 µM) was 0.836 and the relative viability (Neratinib + Pemetrexed; first compound 0.03162 µM) was 0.799. The relative viability (Neratinib + Pemetrexed; first compound 0.1 µM) was 0.663, the relative viability (Neratinib + Pemetrexed; first compound 0.3162 µM) was 0.685 and the relative viability (Neratinib + Pemetrexed; first compound 1 µM) was 0.55. The relative viability (Neratinib + AZD7762; first compound 0.01 µM) was 0.676, the relative viability (Neratinib + AZD7762; first compound 0.1 µM) was 0.491 and the relative viability (Neratinib + AZD7762; first compound 0.3162 µM) was 0.552. The relative viability (Neratinib + AZD7762; first compound 1 µM) was 0.444, the relative viability (Neratinib + Trametinib; first compound 0.01 µM) was 0.449 and the relative viability (Neratinib + Trametinib; first compound 0.03162 µM) was 0.402. It also gave a relative viability (Neratinib + Trametinib; first compound 0.1 µM) of 0.276, a relative viability (Neratinib + Trametinib; first compound 0.3162 µM) of 0.262 and a relative viability (Neratinib + Trametinib; first compound 1 µM) of 0.335. For the same cell line, the relative viability (Neratinib + Decitabine; first compound 0.01 µM) was 0.505, the relative viability (Neratinib + Decitabine; first compound 0.03162 µM) was 0.389 and the relative viability (Neratinib + Decitabine; first compound 0.1 µM) was 0.384. It also gave a relative viability (Neratinib + Decitabine; first compound 0.3162 µM) of 0.352, a relative viability (Neratinib + Decitabine; first compound 1 µM) of 0.366 and a relative viability (Neratinib + Olaparib; first compound 0.01 µM) of 0.855. The relative viability (Neratinib + Olaparib; first compound 0.03162 µM) was 0.917, the relative viability (Neratinib + Olaparib; first compound 0.1 µM) was 0.806 and the relative viability (Neratinib + Olaparib; first compound 0.3162 µM) was 0.643. The relative viability (Neratinib + Olaparib; first compound 1 µM) was 0.427, the relative viability (Neratinib + OSI-027; first compound 0.01 µM) was 0.297 and the relative viability (Neratinib + OSI-027; first compound 0.03162 µM) was 0.265. It also gave a relative viability (Neratinib + OSI-027; first compound 0.1 µM) of 0.303, a relative viability (Neratinib + OSI-027; first compound 0.3162 µM) of 0.305 and a relative viability (Neratinib + OSI-027; first compound 1 µM) of 0.278. For the same cell line, the relative viability (Neratinib + Palbociclib; first compound 0.01 µM) was 0.29, the relative viability (Neratinib + Palbociclib; first compound 0.03162 µM) was 0.265 and the relative viability (Neratinib + Palbociclib; first compound 0.1 µM) was 0.231. The relative viability (Neratinib + Palbociclib; first compound 0.3162 µM) was 0.26, the relative viability (Neratinib + Palbociclib; first compound 1 µM) was 0.337 and the relative viability (Neratinib; 0.01 µM) was 0.819. For the same cell line, the relative viability (Neratinib; 0.03162 µM) was 0.931, the relative viability (Neratinib; 0.1 µM) was 0.657 and the relative viability (Neratinib; 0.3162 µM) was 0.383. The relative viability (Neratinib; 1 µM) was 0.432.
